# Source: US9302999B2, “Substituted triazoles as herbicides” (E. I. DU PONT DE NEMOURS AND COMPANY, priority 2012, dated 2016)
# Tests used:
# Format in all cases: in vivo
# [1] = tested on: wheat (TRZAW, Triticum aestivum); assay: Test H post-emergence, alone and in combination: wheat
# Source text: (§1) Seeds of plant species selected from wheat (TRZAW, Triticum aestivum), barley (HORBW, Hordeum vulgare), Kochia (KCHSC, Kochia caoparia) blackgrass (ALOMY, Alopecurus myosuroides), canarygrass (PHAMI, Phalaris minor), Italian ryegrass (LOLMU, Lolium multiflorum) common lambsquarter (CHEAL, Chenopodium album), pigweed (AMARE, Amaranthus retroflexus), Common Chickweed (STEME, Stellaria media), Russian thistle (SASKR, Salsola iberica), Wild Buckwheat (POLCO, Polygonum convolvulus), Catchweed Bedstraw (GALAP, Galium aparine), Mustard (SINAR, Sinapisar arvensis), Henbit Deadnettle (LAMAM, Lamium amplexicaule), Wild Radish (RAPRA, Raphanus raphanistrum), Field Poppy (PAPRH, Papaver rhoeas), Field Violet (VIOAR, Viola arvennsis), Scentless Chamomile (MATIN Matricaria inodora) were planted into soil and treated post-emergence with test chemicals formulated in a non-phytotoxic solvent mixture. Plants were grown in a greenhouse using supplemental lighting to maintain a photoperiod of approximately 14 hours; daytime and nighttime temperatures were approximately 23°-29° and 16°-19° Celsius, respectively. Balanced fertilizer was applied through the watering system. Treated plants and controls were maintained in a greenhouse for 20 days, after which time all species were compared to controls and visually evaluated. Plant response ratings were calculated as the mean of three replicates (unless otherwise indicated), are summarized in Table G, and are based on a scale of 0 to 100 where 0 is no effect and 100 is complete control. A dash (-) response means no test result.
# [2] = tested on: barley (HORBW, Hordeum vulgare); assay: Test H post-emergence, alone and in combination: barley
# Source text: as §1
# [3] = tested on: Kochia (KCHSC, Kochia caoparia); assay: Test H post-emergence, alone and in combination: Kochia
# Source text: as §1
# [4] = tested on: blackgrass (ALOMY, Alopecurus myosuroides); assay: Test H post-emergence, alone and in combination: blackgrass
# Source text: as §1
# [5] = tested on: canarygrass (PHAMI, Phalaris minor); assay: Test H post-emergence, alone and in combination: canarygrass
# Source text: as §1
# [6] = tested on: Italian ryegrass (LOLMU, Lolium multiflorum); assay: Test H post-emergence, alone and in combination: Italian ryegrass
# Source text: as §1
# [7] = tested on: common lambsquarter (CHEAL, Chenopodium album); assay: Test H post-emergence, alone and in combination: common lambsquarter
# Source text: as §1
# [8] = tested on: pigweed (AMARE, Amaranthus retroflexus); assay: Test H post-emergence, alone and in combination: pigweed
# Source text: as §1
# [9] = tested on: Common Chickweed (STEME, Stellaria media); assay: Test H post-emergence, alone and in combination: Common Chickweed
# Source text: as §1
# [10] = tested on: Russian thistle (SASKR, Salsola iberica); assay: Test H post-emergence, alone and in combination: Russian thistle
# Source text: as §1
# [11] = tested on: Wild Buckwheat (POLCO, Polygonum convolvulus); assay: Test H post-emergence, alone and in combination: Wild Buckwheat
# Source text: as §1
# [12] = tested on: Catchweed Bedstraw (GALAP, Galium aparine); assay: Test H post-emergence, alone and in combination: Catchweed Bedstraw
# Source text: as §1
# [13] = tested on: Mustard (SINAR, Sinapisar arvensis); assay: Test H post-emergence, alone and in combination: Mustard
# Source text: as §1
# [14] = tested on: Henbit Deadnettle (LAMAM, Lamium amplexicaule); assay: Test H post-emergence, alone and in combination: Henbit Deadnettle
# Source text: as §1
# [15] = tested on: Wild Radish (RAPRA, Raphanus raphanistrum); assay: Test H post-emergence, alone and in combination: Wild Radish
# Source text: as §1
# [16] = tested on: Field Poppy (PAPRH, Papaver rhoeas); assay: Test H post-emergence, alone and in combination: Field Poppy
# Source text: as §1
# [17] = tested on: Field Violet (VIOAR, Viola arvennsis); assay: Test H post-emergence, alone and in combination: Field Violet
# Source text: as §1
# [18] = tested on: Scentless Chamomile (MATIN Matricaria inodora); assay: Test H post-emergence, alone and in combination: Scentless Chamomile
# Source text: as §1
# [19] = tested on: barnyardgrass (Echinochloa crus-galli); assay: Test A pre-/postemergence: barnyardgrass; conditions: for Barnyardgrass plant response rating: Postemergence; for Plant response rating, Barnyardgrass: Preemergence
# Method in brief: (§2)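 Seeds were sown in loam/sand blend and sprayed preemergence (directed soil spray) and, simultaneously, postemergence at 2–10 cm, one- to two-leaf stage, using compounds in non-phytotoxic solvent with surfactant. After ~10 days in greenhouse, injury was rated visually versus untreated controls, 0 (no effect) to 100 (complete control).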
# [20] = tested on: crabgrass, large (large crabgrass, Digitaria sanguinalis); assay: Test A pre-/postemergence: crabgrass, large; conditions: for Crabgrass, Large plant response rating: Postemergence; for Plant response rating, Crabgrass, Large: Preemergence
# Method in brief: as §2
# [21] = tested on: foxtail, giant (giant foxtail, Setaria faberii); assay: Test A pre-/postemergence: foxtail, giant; conditions: for Foxtail, Giant plant response rating: Postemergence; for Plant response rating, Foxtail, Giant: Preemergence
# Method in brief: as §2
# [22] = tested on: morningglory (Ipomoea spp.); assay: Test A pre-/postemergence: morningglory
# Method in brief: as §2
# [23] = tested on: pigweed (Amaranthus retroflexus); assay: Test A pre-/postemergence: pigweed
# Method in brief: as §2
# [24] = tested on: velvetleaf (Abutilon theophrasti); assay: Test A pre-/postemergence: velvetleaf
# Method in brief: as §2
# [25] = tested on: wheat (Triticum aestivum); assay: Test A pre-/postemergence: wheat
# Method in brief: as §2
# corn (Zea mays) = assay: Test A pre-/postemergence: corn; conditions: for Corn plant response rating: Postemergence; for Plant response rating, Corn: Preemergence
# Method in brief: as §2
# rice (Oryza sativa) = assay: Test B flooded paddy: rice; conditions: Flood; 250 g ai/ha; applied to paddy water at 2-leaf stage; visually evaluated after 13 to 15 days
# Method in brief: (§3)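 Flooded-pot test: compound dosed into 3 cm of standing water above soil when plants had two leaves. Visual control ratings (0–100) versus untreated plants after 13–15 d.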
# [26] = tested on: sedge, umbrella (small-flower umbrella sedge Cyperus difformis); assay: Test B flooded paddy: sedge, umbrella; conditions: Flood; 250 g ai/ha; applied to paddy water at 2-leaf stage; visually evaluated after 13 to 15 days
# Method in brief: as §3
# [27] = tested on: ducksalad (Heteranthera limosa); assay: Test B flooded paddy: ducksalad; conditions: Flood; 250 g ai/ha; applied to paddy water at 2-leaf stage; visually evaluated after 13 to 15 days
# Method in brief: as §3
# [28] = tested on: barnyardgrass (Echinochloa crus-galli); assay: Test B flooded paddy: barnyardgrass; conditions: Flood; 250 g ai/ha; applied to paddy water at 2-leaf stage; visually evaluated after 13 to 15 days
# Method in brief: as §3
# [29] = 125 g ai/ha, 0 to 100 scale, 0 is no effect, 100 is complete control
# [30] = 500 g ai/ha, visual rating on 0 to 100 scale (0 no effect, 100 complete control), approximately ten days
# [31] = 125 g ai/ha, 0 to 100 scale where 0 is no effect and 100 is complete control
# [32] = 500 g ai/ha, 0 to 100 scale (0 no effect, 100 complete control)
# [33] = Postemergence, 125 g ai/ha, 0 to 100 scale, 0 is no effect, 100 is complete control
# [34] = Postemergence, 500 g ai/ha, visual rating on 0 to 100 scale (0 no effect, 100 complete control), approximately ten days
# [35] = Preemergence, 125 g ai/ha, 0 to 100 scale where 0 is no effect and 100 is complete control
# [36] = Preemergence, 500 g ai/ha, 0 to 100 scale (0 no effect, 100 complete control)
structure (smiles),measurement,setting,value
"COC(=O)c1ccc(C(F)(F)F)nc1S(=O)(=O)NC(=O)Nc1nc(OC)cc(OC)n1 [b2b, flupyrsulfuron-methyl]",TRZAW plant response,[1]; Rate 8,0
same,TRZAW plant response,[1]; Rate 16,5
same,TRZAW plant response,[1]; Rate 31,5
same,TRZAW plant response,[1]; Rate 62,25
same,HORBW plant response,[2]; Rate 8,20
same,HORBW plant response,[2]; Rate 16,30
same,HORBW plant response,[2]; Rate 31,60
same,HORBW plant response,[2]; Rate 62,70
same,KCHSC plant response,[3]; Rate 8,75
same,KCHSC plant response,[3]; Rate 16,100
same,KCHSC plant response,[3]; Rate 31,80
same,KCHSC plant response,[3]; Rate 62,95
same,ALOMY plant response,[4]; Rate 8,100
same,ALOMY plant response,[4]; Rate 16,100
same,ALOMY plant response,[4]; Rate 31,100
same,ALOMY plant response,[4]; Rate 62,100
same,PHAMI plant response,[5]; Rate 8,40
same,PHAMI plant response,[5]; Rate 16,55
same,PHAMI plant response,[5]; Rate 31,85
same,PHAMI plant response,[5]; Rate 62,90
same,LOLMU plant response,[6]; Rate 8,60
same,LOLMU plant response,[6]; Rate 16,60
same,LOLMU plant response,[6]; Rate 31,65
same,LOLMU plant response,[6]; Rate 62,80
same,CHEAL plant response,[7]; Rate 8,60
same,CHEAL plant response,[7]; Rate 16,85
same,CHEAL plant response,[7]; Rate 31,75
same,CHEAL plant response,[7]; Rate 62,80
same,AMARI plant response,[8]; Rate 8,100
same,AMARI plant response,[8]; Rate 16,100
same,AMARI plant response,[8]; Rate 31,100
same,AMARI plant response,[8]; Rate 62,100
same,STEME plant response,[9]; Rate 8,90
same,STEME plant response,[9]; Rate 16,100
same,STEME plant response,[9]; Rate 31,100
same,STEME plant response,[9]; Rate 62,100
same,SASKR plant response,[10]; Rate 8,50
same,SASKR plant response,[10]; Rate 16,50
same,SASKR plant response,[10]; Rate 31,50
same,SASKR plant response,[10]; Rate 62,60
same,POLCO plant response,[11]; Rate 8,100
same,POLCO plant response,[11]; Rate 16,85
same,POLCO plant response,[11]; Rate 31,100
same,POLCO plant response,[11]; Rate 62,100
same,GALAP plant response,[12]; Rate 8,90
same,GALAP plant response,[12]; Rate 16,95
same,GALAP plant response,[12]; Rate 31,90
same,GALAP plant response,[12]; Rate 62,100
same,SINAR plant response,[13]; Rate 8,100
same,SINAR plant response,[13]; Rate 16,95
same,SINAR plant response,[13]; Rate 31,100
same,SINAR plant response,[13]; Rate 62,100
same,LAMAM plant response,[14]; Rate 8,90
same,LAMAM plant response,[14]; Rate 16,95
same,LAMAM plant response,[14]; Rate 31,95
same,LAMAM plant response,[14]; Rate 62,90
same,RAPRA plant response,[15]; Rate 8,100
same,RAPRA plant response,[15]; Rate 16,100
same,RAPRA plant response,[15]; Rate 31,100
same,RAPRA plant response,[15]; Rate 62,100
same,PAPRH plant response,[16]; Rate 8,100
same,PAPRH plant response,[16]; Rate 16,90
same,PAPRH plant response,[16]; Rate 31,100
same,PAPRH plant response,[16]; Rate 62,95
same,VIOAR plant response,[17]; Rate 8,50
same,VIOAR plant response,[17]; Rate 16,75
same,VIOAR plant response,[17]; Rate 31,70
same,VIOAR plant response,[17]; Rate 62,95
same,MATIN plant response,[18]; Rate 8,90
same,MATIN plant response,[18]; Rate 16,95
same,MATIN plant response,[18]; Rate 31,100
same,MATIN plant response,[18]; Rate 62,95
Cc1nn(-c2ccc(F)c(F)c2)nc1Cc1ccnc(C(F)F)c1 [Compound 136],Barnyardgrass plant response rating,[19]; [29],60
same,Barnyardgrass plant response rating,[19]; [30],90
same,"Plant response rating, Barnyardgrass",[19]; [31],70
same,"Plant response rating, Barnyardgrass",[19]; [32],100
same,"Crabgrass, Large plant response rating",[20]; [29],60
same,"Crabgrass, Large plant response rating",[20]; [30],90
same,"Plant response rating, Crabgrass, Large",[20]; [31],80
same,"Plant response rating, Crabgrass, Large",[20]; [32],100
same,"Foxtail, Giant plant response rating",[21]; [29],90
same,"Foxtail, Giant plant response rating",[21]; [30],90
same,"Plant response rating, Foxtail, Giant",[21]; [31],100
same,"Plant response rating, Foxtail, Giant",[21]; [32],100
same,"Plant response rating, Morningglory",[22]; [33],70
same,Morningglory plant response rating,[22]; [34],100
same,"Plant response rating, Morningglory",[22]; [35],20
same,"Plant response rating, Morningglory",[22]; [36],60
same,"Plant response rating, Pigweed",[23]; [33],100
same,Pigweed plant response rating,[23]; [34],100
same,"Plant response rating, Pigweed",[23]; [35],90
same,"Plant response rating, Pigweed",[23]; [36],90
same,"Plant response rating, Velvetleaf",[24]; [33],90
same,Velvetleaf plant response rating,[24]; [34],100
same,"Plant response rating, Velvetleaf",[24]; [35],30
same,"Plant response rating, Velvetleaf",[24]; [36],60
same,"Plant response rating, Wheat",[25]; [33],30
same,Wheat plant response rating,[25]; [34],30
same,"Plant response rating, Wheat",[25]; [35],0
same,"Plant response rating, Wheat",[25]; [36],10
same,Corn plant response rating,corn (Zea mays); [29],20
same,Corn plant response rating,corn (Zea mays); [30],40
same,"Plant response rating, Corn",corn (Zea mays); [31],0
same,"Plant response rating, Corn",corn (Zea mays); [32],10
same,"Plant response rating, Rice (0 to 100 scale, 0 is no effect, 100 is complete control)",rice (Oryza sativa),35
same,"Plant response rating, Sedge, Umbrella (0 to 100 scale, 0 is no effect, 100 is complete control)",[26],85
same,"Plant response rating, Ducksalad (0 to 100 scale, 0 is no effect, 100 is complete control)",[27],75
same,"Plant response rating, Barnyardgrass (0 to 100 scale, 0 is no effect, 100 is complete control)",[28],45
